Results: paper PMC7738871, “Covalent modification of Keap1 at Cys77 and Cys434 by pubescenoside a suppresses oxidative stress-induced NLRP3 inflammasome activation in myocardial ischemia-reperfusion injury” (Theranostics, 2021)

Columns and labels:
Keap1 WT = target: T1, Keap1 WT (Homo sapiens, UniProt Q14145); assay: ITC titration of PBA with Keap1-WT; type: binding; settings: 25 ℃
T1 construct: His (N); made in house; host or cells: E. coli BL21 (DE3)
Method: (§1) The Keap1 was amplified by PCR using a human cDNA library, and was subcloned into the vector pET28-TEV, which contained one tobacco etch virus (TEV) protease cleavage site at the upstream multiple cloning site. The protein was expressed in E. coli BL21 (DE3) cells and incubated at 37 °C until the OD600 value reached 0.6, using 0.2 mM isopropyl β-D-1-thiogalactopyranoside (IPTG) overnight induction at 18 °C. The cells were isolated by centrifugation, resuspended in ice-cold lysis buffer and lysed by cryogenic overpressure cell breaker at 1,200 psi. The lysates were centrifuged for 60 min at 14,000 rpm to obtain the supernatant. Gravity flow purification of Keap1 protein was obtained at room temperature using 1 mL of Ni-NTA and eluted in buffer containing 250 mM imidazole, followed by 1 mL of HiTrap QHP for the second step purification. The final protein was purified and validated by Superdex 200 10/300GL resin.
(§2) Isothermal calorimetry (ITC) titration experiments were performed at 25 °C. WT Keap1, Keap1 mutants and PBA were dissolved in binding buffer (40 mM Tris-HCl pH 8.0, 250 mM NaCl). In a typical experiment, 60 μL of PBA (1 mM) was injected 19 times at 2-min intervals from a stirring syringe into the sample cell containing 300 μL of WT protein or mutants (30 μM). The first injection was 0.4 μL of PBA, and the subsequent 18 injections were 2 μL each time. The site-binding models were determined by using MicroCal Origin software.

Keap1 C273S = target: T2, Keap1 C273S (Homo sapiens, UniProt Q14145, C273S); assay: ITC titration of PBA with Keap1-C273S; type: binding; settings: 25 ℃
T2 construct: His (N); made in house; host or cells: E. coli BL21 (DE3)
T2 sequence (Q14145 whole entry C273S): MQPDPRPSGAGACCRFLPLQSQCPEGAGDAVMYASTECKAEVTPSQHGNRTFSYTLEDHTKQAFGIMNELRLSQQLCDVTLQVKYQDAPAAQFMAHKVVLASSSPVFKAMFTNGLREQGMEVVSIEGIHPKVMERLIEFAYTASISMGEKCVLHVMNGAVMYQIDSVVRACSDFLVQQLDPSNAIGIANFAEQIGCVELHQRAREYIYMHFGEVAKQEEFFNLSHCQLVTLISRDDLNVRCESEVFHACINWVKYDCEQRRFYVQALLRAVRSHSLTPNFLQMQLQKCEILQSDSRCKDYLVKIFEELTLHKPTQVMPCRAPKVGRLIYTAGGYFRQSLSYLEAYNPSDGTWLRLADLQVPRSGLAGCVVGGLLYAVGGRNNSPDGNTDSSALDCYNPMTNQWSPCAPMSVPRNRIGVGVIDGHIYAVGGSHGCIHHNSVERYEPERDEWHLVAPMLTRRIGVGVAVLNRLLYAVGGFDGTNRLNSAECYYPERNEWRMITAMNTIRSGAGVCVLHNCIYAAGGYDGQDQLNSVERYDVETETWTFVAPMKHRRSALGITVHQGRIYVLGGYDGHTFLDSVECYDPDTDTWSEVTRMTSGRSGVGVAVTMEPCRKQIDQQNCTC
Method: as §1
(§3) The mutant plasmid DNA was obtained by PCR. The PCR products were cleaved by DpnI restriction enzymes. The restriction endonuclease-cleaved mixture was subsequently transformed into E. coli DH5α. Colonies were evaluated by colony PCR and sequenced. The mutant plasmid was transformed into E. coli BL21 (DE3) after successful sequencing. The steps for expression and purification of all recombinants were described above.
as §2

Keap1 C434S = target: T3, Keap1 C434S (Homo sapiens, UniProt Q14145, C434S); assay: ITC titration of PBA with Keap1-C434S; type: binding; settings: 25 ℃
T3 construct: His (N); made in house; host or cells: E. coli BL21 (DE3)
T3 sequence (Q14145 whole entry C434S): as the sequence (Q14145 whole entry C273S) above, with S273C, C434S counted along it
Method: as §1, §3, §2

NLRP3 inflammasome = assay: OGD/R-induced NLRP3 inflammasome activation in H9c2; type: cell-based, rat; settings: H9c2, OGD 6 h, reperfusion 18 h, dose-dependent
Method: For OGD/R treatment, H9c2 cells were washed twice with phosphate buffered saline (PBS). The medium was changed to glucose and serum free DMEM, and H9c2 cells were incubated in an incubator with 95% N2 and 5% CO2 at 37 °C. After 6 h, the medium was replaced with DMEM containing 10% FBS and 1% PS. Then H9c2 cells were returned to a normal incubator with 5% CO2 balanced with air at 37 °C for the indicated time.
Total protein was isolated from H9c2 cells, primary mouse cardiomyocytes, RAW264.7 cells and heart tissue using 1X RIPA buffer containing phosphatase and proteinase inhibitors at 4 °C. After measurement of the concentration, the cell lysates were separated by sodium dodecyl sulphate polyacrylamide gel electrophoresis (SDS-PAGE) and transferred to polyvinylidene fluoride (PVDF) membranes. […] After the membranes was washed by TBST buffer for three times, they were incubated with horseradish peroxidase (HRP)-conjugated secondary mouse or rabbit antibodies (1:3,000 dilution) at room temperature (RT) for 1.5 h and then detected by SuperEnhanced chemiluminescence (ECL) reaction reagents (GBCBIO Technologies Inc., Guangzhou, Guangdong, China). […] After letting the membranes stand for 1-2 min, the bands of the respective proteins were detected with the exposure time of 10 ~60 s.

ROS in H9c2 cells = assay: Intracellular ROS (DCFH-DA), OGD/R H9c2; type: cell-based, rat
Method: The fluorescent probe DCFH-DA was used to measure intracellular ROS levels. RAW264.7 cells were treated with 100 μg/mL LPS plus ATP as mentioned above. H9c2 cells underwent OGD/R. After the appropriate treatment, the cells were incubated with DCFH-DA at a concentration of 10 μM for 30 min. The cells were washed with PBS three times. A fluorescence microscope and microplate reader were used to measure the level of DCFH-DA fluorescence at the excitation wavelength of 488 nm and the emission wavelength of 525 nm.

Nrf2 = Nrf2 nuclear translocation; type: cell-based, rat; settings: PBA for 6 h
Method: Total protein was isolated from H9c2 cells, primary mouse cardiomyocytes, RAW264.7 cells and heart tissue using 1X RIPA buffer containing phosphatase and proteinase inhibitors at 4 °C. After measurement of the concentration, the cell lysates were separated by sodium dodecyl sulphate polyacrylamide gel electrophoresis (SDS-PAGE) and transferred to polyvinylidene fluoride (PVDF) membranes. The membranes were blocked in Tris-buffered saline-Tween 20 (TBST) buffer with 5% BSA for 1 h and incubated with primary antibodies (1:1000 dilution) overnight at 4 °C. After the membranes was washed by TBST buffer for three times, they were incubated with horseradish peroxidase (HRP)-conjugated secondary mouse or rabbit antibodies (1:3,000 dilution) at room temperature (RT) for 1.5 h and then detected by SuperEnhanced chemiluminescence (ECL) reaction reagents (GBCBIO Technologies Inc., Guangzhou, Guangdong, China). […] After letting the membranes stand for 1-2 min, the bands of the respective proteins were detected with the exposure time of 10 ~60 s.
According to previous experiences, Nrf2 nucleus translocation could be detected at 6 h. […] After several washes with PBS, the bound antibodies were detected by Alexa Fluor 594-conjugated goat anti-rabbit or Alexa Fluor 488-conjugated goat anti-mouse IgG secondary antibody at RT for 1 h. […]

HO-1 and NQO1 = HO-1 and NQO1 protein expression, RAW264.7; type: cell-based; settings: RAW264.7, 24 h, dose-dependent
Method: Total protein was isolated from H9c2 cells, primary mouse cardiomyocytes, RAW264.7 cells and heart tissue using 1X RIPA buffer containing phosphatase and proteinase inhibitors at 4 °C. After measurement of the concentration, the cell lysates were separated by sodium dodecyl sulphate polyacrylamide gel electrophoresis (SDS-PAGE) and transferred to polyvinylidene fluoride (PVDF) membranes. The membranes were blocked in Tris-buffered saline-Tween 20 (TBST) buffer with 5% BSA for 1 h and incubated with primary antibodies (1:1000 dilution) overnight at 4 °C. After the membranes was washed by TBST buffer for three times, they were incubated with horseradish peroxidase (HRP)-conjugated secondary mouse or rabbit antibodies (1:3,000 dilution) at room temperature (RT) for 1.5 h and then detected by SuperEnhanced chemiluminescence (ECL) reaction reagents (GBCBIO Technologies Inc., Guangzhou, Guangdong, China). In brief, drop evenly the ECL working liquid onto the membrane at the ratio of 1 mL ECL working liquid and 10 cm^2 of membrane. After letting the membranes stand for 1-2 min, the bands of the respective proteins were detected with the exposure time of 10 ~60 s.

T1 sequence (Q14145 whole entry): as the sequence (Q14145 whole entry C273S) above, with S273C counted along it

Kd (Keap1 WT): 2.61 µM
T△S (Keap1 WT): 4.31 ± 0.00 kcal/mol
△G (Keap1 WT): -7.62 ± 0.00 kcal/mol
△H (Keap1 WT): -3.31 ± 0.199 kcal/mol
Kd (Keap1 C273S): 3.8 µM
T△S (Keap1 C273S): 3.53 ± 0.00 kcal/mol
△G (Keap1 C273S): -7.40 ± 0.00 kcal/mol
△H (Keap1 C273S): -3.87 ± 0.271 kcal/mol
Kd (Keap1 C434S): 13.9 µM
T△S (Keap1 C434S): 1.87 ± 0.00 kcal/mol
△G (Keap1 C434S): -6.63 ± 0.00 kcal/mol
△H (Keap1 C434S): -4.76 ± 0.367 kcal/mol
SMILES: C=C(COC(=O)C=Cc1ccc(O)c(O)c1)C(O)COC1OC(CO)C(O)C(O)C1O (stereo not shown) [PBA, pubescenoside A]
OGD/R-induced inflammasome activation (NLRP3, cleaved-caspase1, mature IL-1β) (NLRP3 inflammasome): substantially inhibited
OGD/R-induced ROS (ROS in H9c2 cells): significantly suppress
Nrf2 translocation into nucleus (Nrf2): significantly promoted
HO-1 and NQO1 expression at the protein level (HO-1 and NQO1): increased
